Experimental data reported in patent US20150164884A1, “HCV COMBINATION THERAPY” (Boehringer Ingelheim International GmbH, priority 2009, published 2015).
Values after ≈ are worked out from the molar mass of the structure shown. Where a name gives a salt, the structure may show the parent alone. Read-outs that look alike come from different tables or passages of the source.

Legend:
[1] = Solubility of Compound (1) forms in non-aqueous excipients (HPLC of filtrate); format: physicochemical; details: room temperature, up to 4 days
Method: (§1) The solubility of Compound (1), as either Type A or the sodium salt form, was investigated in various non-aqueous solvents. The solutions were prepared by addition of excess Compound (1) to 0.25 ml to 1.0 ml of excipient in amber screw cap vials with Teflon lined caps. The samples were allowed to rotate at room temperature for up to 4 days. Sampling was done by centrifuging (14,000 rpm on the Eppendorf model 5415C table top centrifuge) and filtering through a 0.45 μm PVDF filter. The filtrate was subject to HPLC analysis for determining the solubility. HPLC analysis was conducted with an to Agilent 1100 using gradient or isocratic conditions. Both methods used acetonitrile/water (each with 0.1% Triflouroacetic Acid) and an ACE C-18 stationary phase with column heating maintained at 40-45° C. The wavelength of detection was set at 220 nm or 264 nm Wet solids were collected and analyzed for form change (stability) by XRPD.

[2] = Form change (stability) study of slurried solids by XRPD; format: physicochemical; details: slurried in either ethanol or propylene glycol
Method: as §1
XRPD analyses for the form change studies were conducted on a Bruker AXS X-Ray Powder Diffractometer Model D8 Discover or D8 Advance, available from Bruker AXS, Inc. of Madison, Wis., using CuKα radiation. The tube power was set to either 40 kV and 40 mA or 40 kV and 30 mA. […]

| Solubility ([1]; Capmul MCM (non-aqueous excipient), oil or lipid, thermodynamic from solid, excipient Capmul MCM, read-out: Solubility) | Solubility ([1]; Capmul PG8 (non-aqueous excipient), oil or lipid, thermodynamic from solid, excipient Capmul PG8, read-out: Solubility) | Solubility ([1]; Labrasol (non-aqueous excipient), oil or lipid, thermodynamic from solid, excipient Labrasol, read-out: Solubility) | Solubility ([1]; PEG 400 (non-aqueous excipient), organic solvent or mixture, thermodynamic from solid, excipient PEG 400, read-out: Solubility) | Solubility ([1]; excipient Ethanol) | Solubility ([1]; excipient Transcutol P) | Solubility ([1]; propylene glycol (non-aqueous excipient), organic solvent or mixture, thermodynamic from solid, excipient Propylene Glycol, read-out: Solubility) | Form stability (change in XRPD pattern of remaining solid phase) ([2]; listed as crystalline sodium salt form of Compound (1)) | Solubility ([1]; excipient Capmul MCM) | Solubility ([1]; excipient Capmul PG8) | Solubility ([1]; excipient Labrasol) | Solubility ([1]; excipient PEG 400) | Form stability (change in XRPD pattern of remaining solid phase) ([2]; listed as Type A form of Compound (1)) | Compound |
| --- | --- | --- | --- | --- | --- | --- | --- | --- | --- | --- | --- | --- | --- |
| 262.5 ± 2.6 mg/mL | < 169 mg/mL | 175 ± 11.8 mg/mL | 234 ± 34 mg/mL | 187.0 ± 23.9 mg/mL | 430.6 ± 14.7 mg/mL | > 468 mg/mL | no change in the XRPD pattern |  |  |  |  |  | C=C[C@@H]1C[C@]1(NC(=O)[C@@H]1C[C@H](Oc2cc(-c3csc(NC(=O)C(C)C)n3)nc3c(Br)c(OC)ccc23)CN1C(=O)[C@@H](NC(=O)OC1CCCC1)C(C)(C)C)C(=O)O [Compound (1) Na salt] |
|  |  |  |  | 0.9 ± 0.1 mg/mL (≈ 1.03 mM) | 24.3 ± 0.3 mg/mL (≈ 27.9 mM) |  |  | 220.6 ± 7.4 mg/mL (≈ 254 mM) | 172.6 ± 8.3 mg/mL (≈ 198 mM) | 146.7 ± 5.1 mg/mL (≈ 169 mM) | 136.8 ± 3.2 mg/mL (≈ 157 mM) | clear form change | C=C[C@@H]1C[C@]1(NC(=O)[C@@H]1C[C@H](Oc2cc(-c3csc(NC(=O)C(C)C)n3)nc3c(Br)c(OC)ccc23)CN1C(=O)[C@@H](NC(=O)OC1CCCC1)C(C)(C)C)C(=O)O [Type A of Compound (1)] |
